Reference: patent publication US9063122B2, “Biomodulators for treatment or prevention of disease” (priority 2008, dated 2015)

Key:
[1] = tested on: murine colonic tumor, colon 26; experiment: Treatment of colon 26 tumors in mice; assay type: in vivo, CDF1 mice; settings: 1 mg in 1 ml on days 7, 11 and 15, under the skin of the back and into tail vein; palpation
Procedure: Treatment of tumors in mice. A pharmaceutical composition of biomodulator 3-indolyl-acetic acid, or 6-furfurylaminopurine are prepared at 10 mg in 10 ml of physiological saline. 10 mg of a murine colonic tumor, colon 26, is inoculated under the skin of the back of CDF1 mice (day 0). After one week, the tumor is measured to calculate the volume of the tumor and the mice are classified into several groups (each group: n=5). On days 7, 11 and 15, the tumor-inoculated mice are bolusly injected under the skin of their backs and into their tail veins with 1 mg of the biomodulator in a volume of 1 ml. Control and comparative groups of mice are similarly injected with saline. Complete regression of the colonic tumor is determined by palpation. Subjects in which the tumor […] by palpation on the 60th day are deemed to have their tumors cured completely.

[2] = tested on: ten different cancer cell lines; experiment: Cellular ATP level (ViaLight) assay, panel of cancer cell lines; assay type: cell-based; settings: various concentrations
Description: (§1) Selected cell lines include C33A cervical carcinoma cells, Mrc-5 normal lung fibroblasts, PC-3 human prostatic carcinoma cell line, OVCAR-3 human ovarian carcinoma cell line, H460 non-small cell lung cancer cell line, A549 human lung carcinoma cell line, H1299 human non-small cell lung cancer cells, MCF-7 human breast cancer cell line, SW-480 human adenocarcinoma cell line, B16-F1 mouse melanoma cell line (American Type Culture Collection, Manassas, Va., USA), HMEC normal mammary epithelial cells (Clonetics San Diego, Calif., USA) and ADR-RES human breast cancer cell line (NCI, MD, USA), which are cultured in the media recommended by the American Type Culture Collection. The cell lines are plated in 96-well microliter plates (PerkinElmer Life Sciences Inc., Boston, Mass., USA) at a confluency that allows them to reach confluence after 4 days of growth. One day after plating, the cells are treated with various concentrations of biomodulator. Stock solutions of the biomodulator are prepared in dimethyl sulfoxide (Sigma-Aldrich Inc., St. Louis, Mo., USA), diluted in the recommended media and then added to the cells. The total dimethyl sulfoxide on the cells is 1%. After 3 days of incubation the ATP levels in the cells are quantified using a luminescent ViaLight detection system (Bio-Whittaker, MD, USA). […]

[3] = tested on: C33A cervical carcinoma cells; experiment: Cellular ATP level (ViaLight) cell viability assay; assay type: cell-based; settings: 0.5 μM, 72 hours after treatment
Description: as §1

[4] = tested on: H1299 human non-small cell lung cancer cells; experiment: Cellular ATP level (ViaLight) cell viability assay; assay type: cell-based; settings: 0.5 μM, 72 hours after treatment
Description: as §1

[5] = tested on: fibroblasts in human skin; settings: cited from earlier work
[6] = tested on: human myeloid leukaemia cells; settings: cited from earlier work
[7] = tested on: white cells; settings: in vitro; cited from earlier work
[8] = tested on: C2C12 muscle stem cells; experiment: WST-1 cell growth assay; assay type: cell-based; settings: day 3; 0.001 μg/ml and 0.0001 μg/ml
Procedure: (§2) Reagents: The auxin 2,4-Dichlorophenoxyacetic acid, and auxin antagonist, TIBA (2,3,5-triiodobenzoic acid), are purchased from Sigma-Aldrich (St. Louis, Mo.), After dissolving, these compounds are stored at −20° C. Concentrations used are 0.0001, 0.001, 0.01 and 0.1 μg/ml.
Cell growth parameters are measured by WST assay. Cell proliferation reagent WST-1 is purchased from Roche (NJ). Assays are performed according to the manufacturer's protocol. Cells are seeded on a 96-well cell culture plate (1.5×10^3 cells/well), and absorbance (A450-A690) is measured at day 3.

[9] = tested on: C2C12 muscle stem cells; experiment: C2C12 muscle stem cell culture with immunocytochemistry (Pax7, MyoD, Ki67, MHC); assay type: cell-based; settings: for number of stem cells in culture: FIG. 2, TIBA at low to mid-level concentrations (range tested 0.0001-0.1 μg/ml)
Procedure: as §2
C2C12 muscle stem cells are used. Cells from low-passage frozen stocks are seeded in a 10 cm culture dish. After reaching 60% confluence, cells are passaged into an 8-well chamber slide (BD Biosciences, CA, USA). C2C12 cells are seeded on an 8-well chamber slide (3.5×10^3 cells/well). On day 3 after exposure to biomodulator or control, cells are fixed for immunocytochemistry (ICC) of MyoD and Ki67. For MHC and Pax7 immunostaining, cell culture media is replaced from the growth media (GM) to the differentiation media (DM) to induce terminal differentiation at day 5, and then cells are fixed for ICC of MHC and Pax7 at day 8. Media change and compound administration are performed daily.
For ICC, cells are fixed with 4% paraformaldehyde (PFA)/PBS for 20 min at ambient temperature. After being washed with PBS, cells are soaked in 0.1% Triton-X/PBS for 15 min at RT and blocked with 5% normal goat serum (NGS)/PBS to inhibit non-specific binding of antibodies for 60 min at ambient temperature. Primary antibodies are applied, and cells are incubated overnight at 4° C. The primary antibodies are anti-Pax7 mouse monoclonal (Developmental Studies Hybridoma Bank (DSHB), IA), anti-MyoD mouse monoclonal (DSHB), anti-Myosin Heavy Chain mouse monoclonal (MF20; DSHB) and anti-Ki67 rabbit polyclonal (Thermo Fisher Scientific, CA) antibodies.

[10] = tested on: cardiac cells (myoblasts); settings: cited from earlier work

With `O=C(O)Cc1c[nH]c2ccccc12` [3-indolyl-acetic acid] the tumor regression [1] was “produces tumor regression”, the “decrease of cellular ATP levels compared with HMEC normal mammary epithelial cell line” value [2] was “greater efficacy in decreasing cellular ATP levels” and the “lowering of ATP levels compared with normal cell lines HMEC and MRC-5” value [3] was “significantly more effective at lowering ATP levels”. For the same compound, the “lowering of ATP levels compared with normal cell lines HMEC and MRC-5” value [4] was “significantly more effective at lowering ATP levels”.

In the case of `c1coc(CNc2ncnc3nc[nH]c23)c1` [6-furfurylaminopurine], the “life span of fibroblasts” value [5] is listed as “prolongs the life span of fibroblasts”, the tumor regression [1] is listed as “produces tumor regression” and the “granulocytic differentiation and apoptosis” value [6] is listed as “induction of granulocytic differentiation”.

For `CC1=CC(=O)CC(C)(C)[C@@]1(O)/C=C/C(C)=C\C(=O)O` [ABA, Abscisic acid], the “phagocytosis in white cells” value [7] is listed as “stimulation of phagocytosis”.

In the case of `O=C(O)c1cc(I)cc(I)c1I` [TIBA, 2,3,5-triiodobenzoic acid], the “cell number, WST-1 cell growth assay” value [8] is reported as “increases cell number”, the “number of stem cells in culture” value [9] is reported as “reduces the number of stem cells” and the myotube formation ([9]; FIG. 6, increased concentrations of TIBA) is reported as “increased myotube formation”. For the same compound, the “number of MyoD positive myoblasts” value ([9]; day 3) was “dose-dependent decrease”.

For `O=C(O)COc1ccc(Cl)cc1Cl` [auxin, 2,4-Dichlorophenoxyacetic acid], the “number of stem cells in culture” value [9] was “opposite that of TIBA”, the global cell proliferation ([9]; FIG. 4, high Auxin concentrations) was “reduced” and the myotube formation ([9]; FIG. 5, low auxin concentration) was “increase”. For the same compound, the myotube formation ([9]; FIG. 5, mid to high auxin concentration (0.01 μg/ml)) was “reduced”.

In the case of `c1nc2nc(Nc3ccc(N4CCOCC4)cc3)nc(NC3CCCCC3)c2[nH]1` [reversine], the de-differentiation of cells [10] is listed as “de-differentiate into osteoblasts and adipocytes”.
